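Results reflect a 48-hour exposure of cells in 96-well plates to compound at five concentrations. Here, GI50 denotes the concentration required for 50% inhibition of growth.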 Activity calls are given as the source filed them. Cut-off read from the data, not from the text of the source: active = GI50 up to about 1.1 µM and inactive = higher.
Columns and labels:
Experiment in all cases: DTP human tumour cell line panel, 48 h
A498 = tested on: A498
ACHN = tested on: ACHN
HCT-116 = tested on: HCT-116
HL-60 = tested on: HL-60
HOP-92 = tested on: HOP-92
HT-29 = tested on: HT-29
K562 = tested on: K562
M14 = tested on: M14
MDA-MB-231 = tested on: MDA-MB-231
Malme-3M = tested on: Malme-3M
NCI-H23 = tested on: NCI-H23
NCI/ADR-RES = tested on: NCI/ADR-RES
OVCAR-8 = tested on: OVCAR-8
RPMI-8226 = tested on: RPMI-8226
RXF 393 = tested on: RXF 393
SK-MEL-28 = tested on: SK-MEL-28
SK-OV-3 = tested on: SK-OV-3
SNB-19 = tested on: SNB-19
UACC-257 = tested on: UACC-257
CCRF-CEM = tested on: CCRF-CEM

Measured: GI50

CN(C(=O)c1ccncc1)c1ccccc1
inactive: A498 > 100 µM | ACHN > 100 µM | HCT-116 > 100 µM | HL-60 > 100 µM | HOP-92 > 100 µM | HT-29 > 100 µM | K562 > 100 µM | M14 > 100 µM | MDA-MB-231 > 100 µM | Malme-3M > 100 µM | NCI-H23 > 100 µM | NCI/ADR-RES > 100 µM | OVCAR-8 > 100 µM | RPMI-8226 > 100 µM | RXF 393 > 100 µM | SK-MEL-28 > 100 µM | SK-OV-3 > 100 µM | SNB-19 > 100 µM | UACC-257 > 100 µM

CCO/C=N/NC(=O)CSc1nc2ccc(I)cc2c(=O)n1Cc1ccccc1
inactive: A498 84.5 µM | ACHN > 100 µM | CCRF-CEM 23 µM | HCT-116 28.8 µM | HL-60 > 100 µM | HOP-92 83.6 µM | HT-29 40.2 µM | K562 11 µM | M14 70.3 µM | MDA-MB-231 38 µM | NCI-H23 36.9 µM | NCI/ADR-RES > 100 µM | OVCAR-8 87.5 µM | RPMI-8226 49.3 µM | RXF 393 34.6 µM | SK-MEL-28 > 100 µM | SK-OV-3 > 100 µM | SNB-19 44.2 µM | UACC-257 > 100 µM

C[C@@]1(O)C[C@@H](N2C(=O)O[C@@H](c3ccccc3)[C@H]2c2ccccc2)[C@@H]1COCc1ccccc1
inactive: A498 18.4 µM | ACHN 26.2 µM | HCT-116 19.5 µM | HL-60 6.35 µM | HOP-92 19 µM | HT-29 17.9 µM | K562 19.4 µM | M14 15.8 µM | MDA-MB-231 15.5 µM | Malme-3M 20.6 µM | NCI-H23 16.1 µM | NCI/ADR-RES 15.2 µM | OVCAR-8 17.8 µM | RPMI-8226 7.74 µM | RXF 393 18.8 µM | SK-MEL-28 18.2 µM | SNB-19 34.8 µM | UACC-257 15.9 µM

O=C(NCc1cccnc1)C(=O)NCc1cccnc1
inactive: A498 > 100 µM | ACHN > 100 µM | HCT-116 > 100 µM | HL-60 27.4 µM | HOP-92 > 100 µM | HT-29 > 100 µM | K562 > 100 µM | M14 > 100 µM | MDA-MB-231 > 100 µM | Malme-3M > 100 µM | NCI-H23 > 100 µM | NCI/ADR-RES > 100 µM | OVCAR-8 > 100 µM | RPMI-8226 > 100 µM | RXF 393 > 100 µM | SK-MEL-28 > 100 µM | SK-OV-3 > 100 µM | SNB-19 > 100 µM | UACC-257 > 100 µM

CN(CCc1ccc(Cl)c(Cl)c1)[C@H]1CCCC[C@H]1N1CCCC1
inactive: A498 > 100 µM | ACHN > 100 µM | HCT-116 > 100 µM | HL-60 > 100 µM | HOP-92 > 100 µM | HT-29 > 100 µM | K562 > 100 µM | M14 > 100 µM | MDA-MB-231 > 100 µM | Malme-3M > 100 µM | NCI-H23 > 100 µM | NCI/ADR-RES > 100 µM | OVCAR-8 > 100 µM | RPMI-8226 > 100 µM | RXF 393 > 100 µM | SK-MEL-28 > 100 µM | SK-OV-3 > 100 µM | SNB-19 > 100 µM | UACC-257 > 100 µM

Nc1nc(CCl)nc(N2CCOCC2)n1
inactive: A498 33 µM | ACHN 16.6 µM | CCRF-CEM 18.6 µM | HCT-116 21.5 µM | HL-60 13.9 µM | HOP-92 16.8 µM | HT-29 32.7 µM | K562 23.4 µM | M14 27.1 µM | MDA-MB-231 28.9 µM | NCI-H23 17.8 µM | NCI/ADR-RES 29.4 µM | OVCAR-8 34.8 µM | RPMI-8226 32.4 µM | RXF 393 36.6 µM | SK-MEL-28 20.4 µM | SK-OV-3 45.6 µM | SNB-19 > 100 µM | UACC-257 63.2 µM

COc1ccc(C)cc1NC(=S)C#N
inactive: A498 > 100 µM | ACHN 30.3 µM | CCRF-CEM 71 µM | HCT-116 > 100 µM | HL-60 > 100 µM | HOP-92 > 100 µM | HT-29 30.8 µM | K562 > 100 µM | M14 30.5 µM | MDA-MB-231 > 100 µM | NCI-H23 33.3 µM | NCI/ADR-RES 27.4 µM | OVCAR-8 27.9 µM | RPMI-8226 74.8 µM | RXF 393 28.1 µM | SK-MEL-28 > 100 µM | SK-OV-3 27.8 µM | SNB-19 28.9 µM | UACC-257 35.3 µM

CCCCCCCCOC(=O)C12Oc3ccc(-c4ccc5c(c4O)C(=O)C4=C(O)CC(C)C(O)C4(C(=O)OCCCCCCCC)O5)c(O)c3C(=O)C1=C(O)CC(C)C2O (stereo not drawn)
inactive: A498 23.5 µM | ACHN 5.61 µM | CCRF-CEM 2.05 µM | HCT-116 7.11 µM | HL-60 2.92 µM | HOP-92 8.45 µM | HT-29 27.2 µM | K562 2.93 µM | M14 26.2 µM | MDA-MB-231 23.8 µM | Malme-3M 32.4 µM | NCI-H23 10.2 µM | NCI/ADR-RES 30.7 µM | OVCAR-8 9.46 µM | RXF 393 2.7 µM | SK-MEL-28 18.2 µM | SK-OV-3 18.7 µM | SNB-19 8.85 µM | UACC-257 34.8 µM

O=[N+]([O-])c1ccc2c(c1)n1c(N3CCCC3)[n+]3ccccc3c1c1c3ccccn3c(N3CCCC3)[n+]21.[O-][Cl+3]([O-])([O-])[O-].[O-][Cl+3]([O-])([O-])[O-]
inactive: A498 > 100 µM | ACHN 10 µM | CCRF-CEM 21.1 µM | HCT-116 > 100 µM | HL-60 32 µM | HOP-92 > 100 µM | K562 23.7 µM | M14 > 100 µM | MDA-MB-231 > 100 µM | Malme-3M 68.9 µM | NCI-H23 > 100 µM | NCI/ADR-RES > 100 µM | OVCAR-8 > 100 µM | RPMI-8226 > 100 µM | RXF 393 > 100 µM | SK-MEL-28 > 100 µM | SNB-19 45 µM | UACC-257 > 100 µM

NS(=O)(=O)c1nnc(NC(=O)CCC(=O)O)s1
inactive: A498 > 100 µM | ACHN > 100 µM | HCT-116 > 100 µM | HL-60 > 100 µM | HOP-92 > 100 µM | HT-29 > 100 µM | K562 > 100 µM | M14 > 100 µM | MDA-MB-231 > 100 µM | Malme-3M > 100 µM | NCI-H23 > 100 µM | NCI/ADR-RES > 100 µM | OVCAR-8 > 100 µM | RPMI-8226 > 100 µM | RXF 393 > 100 µM | SK-MEL-28 > 100 µM | SK-OV-3 > 100 µM | SNB-19 > 100 µM | UACC-257 > 100 µM

Reference: ChEMBL document CHEMBL1201862, “PubChem BioAssay data set” (2004)
